{"source": "ChEMBL document CHEMBL1158922", "about": "“Antineoplastic agents, 177. Isolation and structure of phyllanthostatin 6” (1990)", "tested_on": "P388", "experiment": "Cytotoxicity against mouse P388 cells", "type": "functional", "conditions": "read-out: ED50 (the source's name)", "data": [{"smiles": "CC1CO[C@]2(CC1OC(=O)/C=C/c1ccccc1)OC1CC(C(=O)O[C@@H]3O[C@H](CO)[C@@H](O)[C@H](O)[C@H]3O[C@@H]3O[C@H](C)[C@@H](O)[C@H](O)[C@H]3O)CCC1[C@]21CO1", "note": "(stereo partly specified) [PHYLLANTHOSTATIN 6]", "values": [{"measurement": "EC50", "result": 0.35, "unit": "µg/mL"}]}]}
